According to patent US20110098221A1, “INHIBITORS OF Akt ACTIVITY” (priority 2008, published 2011):

Target: T1, full length AKT1 (Homo sapiens, UniProt P31749)
T1 construct: His tag (from vector pFastBacHTb) (N); made in house; host or cells: baculovirus; Sf9 / T. ni insect cells
Experiment: Full-length AKT enzyme assay (substrate phosphorylation, SPA)
Format: biochemical
Settings: in at least one experimental run; pIC50 = -log(IC50), IC50 in molar units; 4 uM ATP, 10 nM activated enzyme; read-out: pIC50 against full length AKT1 (converted)

T1 sequence (P31749 whole entry): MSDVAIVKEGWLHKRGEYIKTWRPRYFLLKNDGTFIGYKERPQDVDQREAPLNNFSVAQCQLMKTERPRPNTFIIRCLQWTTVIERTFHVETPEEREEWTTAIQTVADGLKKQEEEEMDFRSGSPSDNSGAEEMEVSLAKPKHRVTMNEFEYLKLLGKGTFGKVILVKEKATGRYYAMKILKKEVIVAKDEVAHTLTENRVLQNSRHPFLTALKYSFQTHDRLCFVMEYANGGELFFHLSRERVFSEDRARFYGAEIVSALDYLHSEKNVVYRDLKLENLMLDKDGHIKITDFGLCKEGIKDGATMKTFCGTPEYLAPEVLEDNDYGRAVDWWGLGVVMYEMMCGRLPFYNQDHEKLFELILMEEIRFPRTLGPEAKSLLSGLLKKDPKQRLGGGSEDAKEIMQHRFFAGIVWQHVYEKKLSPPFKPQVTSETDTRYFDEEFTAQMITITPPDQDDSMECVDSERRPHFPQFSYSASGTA

Cn1nccc1-c1cnc(C(=O)N[C@H](CN)Cc2cccc(F)c2)s1 [Example 1, N-{(1S)-2-amino-1-[(3-fluorophenyl)methyl]ethyl}-5-(1-methyl-1H-pyrazol-5-yl)-1,3-thiazole-2-carboxamide] was tested, and the IC50 was 6.31 nM.
